Test results published in US20240270719A1, “CRYSTALLINE FORMS OF 2-(4-(4-(AMINOMETHYL)-1-OXO-1,2-DIHYDROPHTHALAZIN-6-YL)-1-METHYL-1H-PYRAZOL-5-YL)-4-CHLORO-6-CYCLOPROPOXY-3-FLUOROBENZONITRILE” (Mirati Therapeutics, Inc., priority 2023, published 2024).
Where a name gives a salt, the structure may show the parent alone.

Key:
[1] = Relative stability of hydrate forms, competitive slurry experiments in IPA/water systems; type: physicochemical
Text: The relative stability between free base Form A, Form B, and Form D was investigated by conducting competitive slurry experiments in isopropyl alcohol (IPA)/water systems at room temperature. […] Further addition of Form A to the experiments verified the result. In systems with αw≥0.37, only Form A was observed after 1 day of stirring at room temperature. Further addition of Form B and Form D to the experiment confirmed the outcome.

[2] = Pharmacokinetics after oral capsule administration to dogs pre-treated with pentagastrin or famotidine; type: in vivo, male beagle dogs; details: 100 mg/dog, particle size normalized
Procedure: The substances were filled into Empty HPMC Capsules after correcting for potency and administered to dogs pre-treated with either pentagastrin or famotidine along with 40 mL of water. Pentagastrin enhances gastric secretions whereas famotidine neutralizes gastric sections. Therefore, pentagastrin and famotidine pre-treatments were used to simulate the impact of gastric pH on bioavailability and reduce the variability in gastric pH between dogs.
Plasma samples were collected at pre-defined intervals and analyzed for the concentration of Compound 1. The plasma concentration versus time data was analyzed by non-compartmental approaches using Win Nonlin software program to estimate PK parameters such as Cmax, Tmax, AUC0-t and AUC0-inf.

[3] = Excipient compatibility, total impurity content of binary mixtures by HPLC; type: physicochemical; details: 40° C./75% RH, 8 weeks; for Compatibility with excipients (total impurity content): binary mixtures, open condition; for Risk of chemical stability: with excipients
Text: Binary mixtures of samples were created by mixing the substance and the excipients (1:10 Compound to Excipients for fillers and 1:1 for all other excipients) using a mortar and pestle and the resultant mixture was accurately weighed and transferred into sample vials. The excipients used were as follows: colloidal silicon dioxide 200, croscarmellose sodium, crosprovidone XL-10, dibasic calcium phosphate (an), hydroxypropyl cellulose, lactose monohydrate, magnesium stearate, mannitol 100SD, MCC PH102, Opadry™ 11, povidone K-30, pregelatinized starch 1500, sodium starch glycolate, and sodium stearyl fumarate. The sample vials were set down at 40° C./75% RH condition for 8 weeks in open condition before analyzing their impurity levels using HPLC.

[4] = Compressibility, tabletability, compatibility and physical stability under compaction; type: physicochemical
Procedure: The compressibility (i.e., porosity vs compaction pressure), tabletability (i.e., tensile strength vs compaction pressure), and compatibility (i.e. tensile strength vs porosity) of Free Base Form A of Compound 1 was measured.

[5] = Intrinsic dissolution rate and drug in capsule dissolution in FaSSGF and FaSSIF; type: physicochemical
Procedure: The IDR rate was calculated using the slope of the linear curve divided by the surface area of tablet (0.5 cm^2). […] 0.6 mL liquid was removed with a syringe at each time point and filtered. The concentration of filtrates was analyzed by HPLC.

For `Cn1ncc(-c2ccc3c(=O)[nH]nc(CN)c3c2)c1-c1c(F)c(Cl)cc(OC2CC2)c1C#N` [Form B, 2-(4-(4-(aminomethyl)-1-oxo-1,2-dihydrophthalazin-6-yl)-1-methyl-1H-pyrazol-5-yl)-4-chloro-6-cyclopropoxy-3-fluorobenzonitrile], the “Conversion rate in competitive slurry” value ([1]; αw=0.13, compared with higher water activities) was “slightly slower than those at higher water activities” and the “Form conversion in competitive slurry” value ([1]; αw=0.13, room temperature) was “converted to Form A eventually”.
In the case of `Cn1ncc(-c2ccc3c(=O)[nH]nc(CN)c3c2)c1-c1c(F)c(Cl)cc(OC2CC2)c1C#N` [Free Base Form A, 2-(4-(4-(aminomethyl)-1-oxo-1,2-dihydrophthalazin-6-yl)-1-methyl-1H-pyrazol-5-yl)-4-chloro-6-cyclopropoxy-3-fluorobenzonitrile], the “Exposure (plasma AUC) compared with HCl salt” value [2] is reported as “equivalent exposure to HCl salt”, the “Compatibility with excipients (total impurity content)” value [3] is reported as “good compatibility with excipients” and the “Sensitivity to individual excipients (total impurity content)” value ([3]; colloidal silicon dioxide and lactose monohydrate, open) is reported as “more sensitive to colloidal silicon dioxide and lactose monohydrate than HCl Form B”. For the same compound, the “Risk of chemical stability” value ([3]; open) was “slightly higher”, the “Compatibility (tensile strength vs porosity)” value [4] was “good” and the “Compressibility (porosity vs compaction pressure)” value [4] was “good”. For the same compound, the “Tabletability (tensile strength vs compaction pressure)” value [4] was “good”, the “Loss of crystallinity (XRPD before and after compression)” value ([4]; high compaction pressures) was “No apparent loss of crystallinity” and the “Dissolution in gastric media” value ([5]; 37° C., 50 rpm) was “faster dissolution in gastric media”. The “Supersaturation in intestinal fluid” value ([5]; pH shifted from gastric to intestinal after 30 minutes) was “able to maintain super saturation in intestinal fluid”.
For `Cn1ncc(-c2ccc3c(=O)[nH]nc(CN)c3c2)c1-c1c(F)c(Cl)cc(OC2CC2)c1C#N` [HCl Form B], the “Compatibility with excipients (total impurity content)” value [3] was “good compatibility with excipients”, the “Risk of chemical stability” value ([3]; open) was “slightly higher” and the “Dissolution in gastric media” value ([5]; 37° C., 50 rpm) was “common ion effect slowing dissolution”. The “Dissolution rate in intestinal media” value ([5]; intestinal media, 37° C., 50 rpm) was “slightly faster dissolution rate than Free Base Form A”.
